The test system of one data set is HLM (Phase 1). The experiment in a line: Reaction phenotyping, HLM with NADPH. It counts as in vitro ADME, human.
Another data set concerns the target T1, CYP1B1 (Homo sapiens, UniProt Q16678).
T1 construct: purchased Corning Inc
The data set is described as follows: Enzyme inhibition assay, CYP1B1. It counts as in vitro ADME. Particulars: Recombinant CYP1B1; 7-ethoxyresorufin O-deethylation.

The target of a further data set is T2, CYP2B6 (Homo sapiens, UniProt P20813).
T2 construct: tissue Xenotech LLC; host or cells: human liver microsomes, mixed-gender 50 donor pool
The experiment in a line: Enzyme inhibition assay, CYP2B6. It counts as in vitro ADME.

The next data set has as its target T3, CYP2C8 (Homo sapiens, UniProt P10632).
T3 construct: tissue Xenotech LLC; host or cells: human liver microsomes, mixed-gender 50 donor pool
The experiment in a line: Enzyme inhibition assay, CYP2C8. It counts as in vitro ADME.

A further data set has as its target T4, UGT1A1 (Homo sapiens, UniProt P22309).
T4 construct: from tissue
T4 sequence (P22309 26-533): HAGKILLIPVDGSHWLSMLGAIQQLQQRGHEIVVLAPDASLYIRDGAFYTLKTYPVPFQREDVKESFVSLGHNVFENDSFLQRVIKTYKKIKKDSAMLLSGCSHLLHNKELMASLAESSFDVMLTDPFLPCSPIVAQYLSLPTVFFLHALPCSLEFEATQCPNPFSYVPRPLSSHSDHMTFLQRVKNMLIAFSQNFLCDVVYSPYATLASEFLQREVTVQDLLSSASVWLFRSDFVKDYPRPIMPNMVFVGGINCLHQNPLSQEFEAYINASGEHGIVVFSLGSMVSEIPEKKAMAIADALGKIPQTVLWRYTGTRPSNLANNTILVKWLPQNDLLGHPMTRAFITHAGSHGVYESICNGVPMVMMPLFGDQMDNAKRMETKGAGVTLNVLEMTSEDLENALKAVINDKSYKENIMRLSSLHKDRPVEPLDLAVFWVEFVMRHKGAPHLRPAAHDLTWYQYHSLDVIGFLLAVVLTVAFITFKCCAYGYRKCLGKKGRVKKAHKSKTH
The data set is described as follows: Enzyme inhibition assay, UGT1A1. It counts as in vitro ADME. Conditions: for IC50: HLM, UGT1A1 SN38 glucuronidation.

Data set [1] has as its system primary human hepatocytes. The experiment in a line: Cytotoxicity in CYP induction studies. It counts as cell-based. Conditions: 303 nM (100 ng/mL) in primary human hepatocytes.
The next data set has as its system CYP3A4 mRNA. More on the design: method as in PMID 23965226. Particulars: 10 μM DPV, colorectal tissue from three human donors; cited from earlier work.
The next data set has as its system CYP1A2 mRNA. More on the design: method as in PMID 23965226. Particulars: 10 μM DPV, colorectal tissue from three human donors; cited from earlier work.
A further data set has as its system CYP2B6 mRNA. More on the design: method as in PMID 23965226. Conditions: 10 μM DPV, colorectal tissue from three human donors; cited from earlier work.
The next data set addresses T5, UGT1A9 (Homo sapiens, UniProt O60656).
T5 sequence (O60656 26-530): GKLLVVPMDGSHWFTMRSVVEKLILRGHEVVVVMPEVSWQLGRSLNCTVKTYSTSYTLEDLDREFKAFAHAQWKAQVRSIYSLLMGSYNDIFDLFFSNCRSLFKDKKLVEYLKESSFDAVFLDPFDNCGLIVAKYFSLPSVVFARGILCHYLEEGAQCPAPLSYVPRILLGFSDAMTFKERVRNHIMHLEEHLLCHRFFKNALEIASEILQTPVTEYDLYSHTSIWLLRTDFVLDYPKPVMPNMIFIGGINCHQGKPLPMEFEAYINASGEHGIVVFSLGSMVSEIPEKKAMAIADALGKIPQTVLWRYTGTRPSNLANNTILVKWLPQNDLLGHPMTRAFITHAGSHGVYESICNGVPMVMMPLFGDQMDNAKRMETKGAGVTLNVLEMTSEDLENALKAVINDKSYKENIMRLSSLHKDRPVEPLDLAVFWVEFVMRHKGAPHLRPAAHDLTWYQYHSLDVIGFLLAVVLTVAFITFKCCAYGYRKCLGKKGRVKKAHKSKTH
The experiment in a line: Enzyme inhibition assay, UGT1A9. It counts as in vitro ADME. More on the design: from tissue. Conditions: HLM; UGT1A9 mycophenolic acid glucuronidation.

The target of a further data set is T6, CYP1A2 (Homo sapiens, UniProt P05177).
T6 sequence (P05177 1-516): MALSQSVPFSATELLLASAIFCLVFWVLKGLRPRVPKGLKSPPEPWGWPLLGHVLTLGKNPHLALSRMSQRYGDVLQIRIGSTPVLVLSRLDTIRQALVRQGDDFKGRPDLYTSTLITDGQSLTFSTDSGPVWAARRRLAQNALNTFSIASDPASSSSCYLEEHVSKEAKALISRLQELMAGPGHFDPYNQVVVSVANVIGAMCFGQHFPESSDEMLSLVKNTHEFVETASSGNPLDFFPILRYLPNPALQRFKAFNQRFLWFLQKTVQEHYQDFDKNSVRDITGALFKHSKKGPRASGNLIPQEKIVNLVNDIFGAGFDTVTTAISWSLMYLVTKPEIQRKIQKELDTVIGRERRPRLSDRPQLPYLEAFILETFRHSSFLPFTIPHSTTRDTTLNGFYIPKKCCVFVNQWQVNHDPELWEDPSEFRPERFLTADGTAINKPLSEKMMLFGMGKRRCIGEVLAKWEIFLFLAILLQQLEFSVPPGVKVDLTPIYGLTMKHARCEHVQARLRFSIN
The data set is described as follows: Enzyme inhibition assay, CYP1A2.

In another data set the target is T7, UGT1A4 (Homo sapiens, UniProt P22310).
T7 sequence (P22310 29-534): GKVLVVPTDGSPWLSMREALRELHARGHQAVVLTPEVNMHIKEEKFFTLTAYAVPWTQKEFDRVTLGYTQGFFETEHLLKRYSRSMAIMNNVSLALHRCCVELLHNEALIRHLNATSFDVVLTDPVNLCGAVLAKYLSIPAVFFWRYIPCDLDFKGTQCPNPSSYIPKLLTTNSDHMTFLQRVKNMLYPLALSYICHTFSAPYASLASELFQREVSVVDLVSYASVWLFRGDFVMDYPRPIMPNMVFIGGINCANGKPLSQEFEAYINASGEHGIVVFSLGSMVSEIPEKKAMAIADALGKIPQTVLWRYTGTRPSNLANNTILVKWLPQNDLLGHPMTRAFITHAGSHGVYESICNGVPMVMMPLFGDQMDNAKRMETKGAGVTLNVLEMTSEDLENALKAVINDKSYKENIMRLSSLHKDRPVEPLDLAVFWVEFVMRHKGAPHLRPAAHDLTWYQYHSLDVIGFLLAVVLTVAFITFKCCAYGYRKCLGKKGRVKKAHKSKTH
The experiment in a line: Enzyme inhibition assay, UGT1A4.

For another data set, the target named is CYP2C19 (Homo sapiens, UniProt P33261). The data set is described as follows: Enzyme inhibition assay, CYP2C19.

Where two headings read alike, the source gives them in different places. Some results are limits rather than exact numbers.

Usually IC50 stands for the point on the concentration scale where inhibition reaches its midpoint.

T1 sequence (Q16678 whole entry): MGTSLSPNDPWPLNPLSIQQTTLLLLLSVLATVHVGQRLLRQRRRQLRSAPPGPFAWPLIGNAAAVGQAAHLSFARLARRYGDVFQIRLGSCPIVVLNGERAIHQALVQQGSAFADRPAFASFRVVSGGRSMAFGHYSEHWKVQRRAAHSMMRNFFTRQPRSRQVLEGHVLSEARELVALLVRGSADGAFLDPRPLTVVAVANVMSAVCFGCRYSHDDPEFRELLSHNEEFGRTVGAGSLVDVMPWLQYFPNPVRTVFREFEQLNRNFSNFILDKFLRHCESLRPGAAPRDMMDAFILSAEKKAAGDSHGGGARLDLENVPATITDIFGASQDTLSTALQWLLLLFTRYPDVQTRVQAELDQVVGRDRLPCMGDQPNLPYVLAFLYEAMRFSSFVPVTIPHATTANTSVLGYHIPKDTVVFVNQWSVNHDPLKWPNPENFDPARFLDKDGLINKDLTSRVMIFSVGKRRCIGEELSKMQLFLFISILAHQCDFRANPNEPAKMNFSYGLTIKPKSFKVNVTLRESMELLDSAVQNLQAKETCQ
CYP2C19, sequence (P33261 whole entry): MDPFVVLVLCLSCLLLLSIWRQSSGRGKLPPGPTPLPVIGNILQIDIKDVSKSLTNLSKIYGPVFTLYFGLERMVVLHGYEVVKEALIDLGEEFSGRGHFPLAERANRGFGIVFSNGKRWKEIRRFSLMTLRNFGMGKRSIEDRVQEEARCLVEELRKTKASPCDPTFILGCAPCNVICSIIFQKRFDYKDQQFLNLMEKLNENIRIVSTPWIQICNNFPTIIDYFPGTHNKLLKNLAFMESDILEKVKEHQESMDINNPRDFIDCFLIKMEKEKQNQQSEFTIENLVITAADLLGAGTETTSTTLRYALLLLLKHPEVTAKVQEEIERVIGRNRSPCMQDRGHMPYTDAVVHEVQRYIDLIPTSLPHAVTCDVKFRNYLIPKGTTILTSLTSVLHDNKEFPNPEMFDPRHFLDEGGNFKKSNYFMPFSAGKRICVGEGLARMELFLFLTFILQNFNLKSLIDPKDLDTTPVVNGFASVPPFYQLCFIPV
T3 sequence (P10632 whole entry): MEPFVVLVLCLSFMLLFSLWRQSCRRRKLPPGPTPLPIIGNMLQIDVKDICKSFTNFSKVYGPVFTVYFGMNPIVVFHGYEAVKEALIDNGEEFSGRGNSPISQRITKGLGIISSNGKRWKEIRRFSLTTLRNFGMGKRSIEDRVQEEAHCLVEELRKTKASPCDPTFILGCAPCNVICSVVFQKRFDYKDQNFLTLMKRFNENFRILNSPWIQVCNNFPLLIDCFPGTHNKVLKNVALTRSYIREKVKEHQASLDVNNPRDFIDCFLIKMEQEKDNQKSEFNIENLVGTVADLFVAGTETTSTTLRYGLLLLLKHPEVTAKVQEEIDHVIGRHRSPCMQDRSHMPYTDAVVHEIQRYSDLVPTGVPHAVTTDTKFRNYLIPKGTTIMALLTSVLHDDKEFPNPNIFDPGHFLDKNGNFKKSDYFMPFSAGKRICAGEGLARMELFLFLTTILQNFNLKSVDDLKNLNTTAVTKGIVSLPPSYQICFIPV
T2 sequence (P20813 whole entry): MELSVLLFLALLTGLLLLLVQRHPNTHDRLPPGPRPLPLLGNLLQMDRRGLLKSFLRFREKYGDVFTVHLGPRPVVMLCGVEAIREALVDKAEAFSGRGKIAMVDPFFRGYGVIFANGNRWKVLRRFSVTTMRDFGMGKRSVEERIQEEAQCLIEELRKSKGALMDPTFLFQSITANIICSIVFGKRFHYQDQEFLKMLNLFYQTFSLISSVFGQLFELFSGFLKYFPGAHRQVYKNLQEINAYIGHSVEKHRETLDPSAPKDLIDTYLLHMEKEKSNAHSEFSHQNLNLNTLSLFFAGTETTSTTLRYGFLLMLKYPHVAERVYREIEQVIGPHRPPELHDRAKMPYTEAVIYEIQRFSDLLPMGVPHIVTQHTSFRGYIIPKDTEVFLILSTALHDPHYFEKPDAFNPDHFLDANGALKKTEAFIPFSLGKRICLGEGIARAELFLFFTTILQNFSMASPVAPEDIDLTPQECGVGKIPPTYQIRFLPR

Take `Cc1cc(C)c(Nc2ccnc(Nc3ccc(C#N)cc3)n2)c(C)c1` [DPV, Dapivirine]: in the data set on HLM (Phase 1) (10 μM DPV), the “% DPV Remaining at 60 min without MIC” value is 37.14%. Also, the “% DPV Remaining at 60 min with MIC” value with HLM (Phase 1) (10 μM DPV and 30 μM MIC) came out at 88.39%. Moreover, the IC50 is 1.55 µM on CYP1B1; 10.1 µM against CYP2B6; 1.41 µM at CYP2C8; 5.2 µM at UGT1A1 (read-out: IC50); over 30 µM against UGT1A9; 10.5 µM at CYP1A2. For the same molecule, the IC50 on UGT1A4 is 9.45 µM; on CYP2C19 it was over 30 µM. In data set [1], the cytotoxicity result was “no cytotoxicity observed”. Moreover, in the data set with CYP3A4 mRNA, the “CYP3A4 mRNA change” value is “induction in two donors”. Also, in the data set on CYP1A2 mRNA, the “CYP1A2 mRNA change” value is on record as “induction in one donor”. The “CYP2B6 mRNA change” value in the data set with CYP2B6 mRNA is “inhibition in one donor”.

As for `Clc1ccc(COC(Cn2ccnc2)c2ccc(Cl)cc2Cl)c(Cl)c1` (centres unmarked) [MIC, miconazole], the IC50 on CYP1B1 was 0.47 µM; against UGT1A1, “Apparent activation with MIC”; on UGT1A9, over 30 µM; on CYP1A2 it was 5.11 µM; against UGT1A4, 26.5 µM. Also, on UGT1A1 (human, human liver microsomes, probe SN38 (0.5 µM), SN38 glucuronidation, read-out: maximum activation of SN38 glucuronidation), the Emax at 15 min, 30 µM amounted to 607%.

(Values after PMC8706783 (Pharmaceutics, 2021).)
